A word on the pIC50: it is the negative decadic logarithm of the IC50, by convention in mol/L.

Results on 47 compounds are retold here after patent US6984649B1, “Pyridine derivatives” (Bayer Aktiengesellschaft, priority 2000, dated 2006).

pIC50: −log10 of the molar value. Structures can show the parent of a compound that is named as a salt.

In one test the test system is A549 human lung epithelium cell line. The test is described as follows: RANTES production in response to TNF-α from A549 cells. The settings on record: A549 cells, 100 ng/ml TNF-α, read-out: Cellular activity grade (A549) (Cellular IC50). Type of test: cell-based. In short, it runs like this:
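RANTES released into supernatant was measured by DELFIA-type sandwich immunoassay, Eu-labelled detection antibody, 340 nm excitation/615 nm emission, recombinant RANTES standard. Beforehand, cells seeded at 4×10^4/well received test compound (1% DMSO) for 1 h at 37 °C, followed by 24 h TNF-α (100 ng/ml) stimulation.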
For `N#Cc1c(C2CCCNC2)cc(-c2c(O)cccc2OCC2CCCO2)nc1N` (centres unmarked) [Example 2-81], the pIC50 is above 6.00.

The same test, now with this note: Homo sapiens, A549, A549 cells, 100 ng/ml TNF-α, read-out: Cellular activity grade (A549) (Cellular IC50).
On to `N#Cc1c(C2CCCNC2)cc(-c2c(O)cccc2OCc2cccc(Br)c2)nc1N` (centres unmarked) [Example 2-11], for which the negative logarithm of the IC50 (pIC50) is 5.00 to 6.00.

In the case of `N#Cc1c(C2CCCNC2)cc(-c2c(O)cccc2OCc2ccccc2[N+](=O)[O-])nc1N` (centres unmarked) [Example 2-12], the negative logarithm of the IC50 (pIC50) is 5.00 to 6.00.

As to `N#Cc1c(C2CCCNC2)cc(-c2c(O)cccc2OCc2cccc([N+](=O)[O-])c2)nc1N` (centres unmarked) [Example 2-13], the pIC50 is 5.00 to 6.00.

Take `N#Cc1c(C2CCCNC2)cc(-c2c(O)cccc2OCc2ccc([N+](=O)[O-])cc2)nc1N` (centres unmarked) [Example 2-14]: the pIC50 was above 6.00.

Regarding `N#Cc1cccc(COc2cccc(O)c2-c2cc(C3CCCNC3)c(C#N)c(N)n2)c1` (centres unmarked) [Example 2-15], the pIC50 is above 6.00.

In the case of `N#Cc1ccc(COc2cccc(O)c2-c2cc(C3CCCNC3)c(C#N)c(N)n2)cc1` (centres unmarked) [Example 2-16], the pIC50 was above 6.00.

For the compound `N#Cc1c(C2CCCNC2)cc(-c2c(O)cccc2OCc2ccccc2Cl)nc1N` (centres unmarked) [Example 2-17], the pIC50 is 5.00 to 6.00.

Regarding `N#Cc1c(C2CCCNC2)cc(-c2c(O)cccc2OCc2cccc(Cl)c2)nc1N` (centres unmarked) [Example 2-18], the negative-log IC50 (pIC50) was 5.00 to 6.00.

In the case of `N#Cc1c(C2CCCNC2)cc(-c2c(O)cccc2OCc2ccc(Cl)cc2)nc1N` (centres unmarked) [Example 2-19], the negative-log IC50 (pIC50) was above 6.00.

For the compound `N#Cc1c(C2CCCNC2)cc(-c2c(O)cccc2OCc2c(Cl)cccc2Cl)nc1N` (centres unmarked) [Example 2-20], the pIC50 is 5.00 to 6.00.

For the compound `N#Cc1c(C2CCCNC2)cc(-c2c(O)cccc2OCc2ccc3ccccc3c2)nc1N` (centres unmarked) [Example 2-21], the pIC50 is above 6.00.

With `N#Cc1c(C2CCCNC2)cc(-c2c(O)cccc2OCCC2CCCCC2)nc1N` (centres unmarked) [Example 2-61], the negative-log IC50 (pIC50) was above 6.00.

Regarding `N#Cc1c(C2CCCNC2)cc(-c2c(O)cccc2OCC2CCC2)nc1N` (centres unmarked) [Example 2-62], the pIC50 was above 6.00.

For the compound `CC(C)CCCOc1cccc(O)c1-c1cc(C2CCCNC2)c(C#N)c(N)n1` (centres unmarked) [Example 2-63], the pIC50 was above 6.00.

Take `CCCCCCCOc1cccc(O)c1-c1cc(C2CCCNC2)c(C#N)c(N)n1` (centres unmarked) [Example 2-64]: the pIC50 is 5.00 to 6.00.

Regarding `N#Cc1c(C2CCCNC2)cc(-c2c(O)cccc2OCC2CC2)nc1N` (centres unmarked) [Example 2-65], the pIC50 is above 6.00.

As to `CC(C)CCCOc1cccc(O)c1-c1cc(C2CCNCC2)c(C#N)c(N)n1` [Example 2-66], the pIC50 was above 6.00.

As for `CCCOc1cccc(O)c1-c1cc(C2CCNCC2)c(C#N)c(N)n1` [Example 2-67], the pIC50 is above 6.00.

As to `N#Cc1c(C2CCNCC2)cc(-c2c(O)cccc2OCC2CCC2)nc1N` [Example 2-68], the negative logarithm of the IC50 (pIC50) is above 6.00.

Regarding `CCCCCOc1cccc(O)c1-c1cc(C2CCNCC2)c(C#N)c(N)n1` [Example 2-69], the pIC50 is above 6.00.

`N#Cc1c(C2CCNCC2)cc(-c2c(O)cccc2OCCC2CCCCC2)nc1N` [Example 2-70]: the pIC50 was above 6.00.

Take `CC(C)COc1cccc(O)c1-c1cc(C2CCNCC2)c(C#N)c(N)n1` [Example 2-71]: the pIC50 was above 6.00.

`CCCCCCCOc1cccc(O)c1-c1cc(C2CCNCC2)c(C#N)c(N)n1` [Example 2-73]: the pIC50 is above 6.00.

As to `C=CCOc1cccc(O)c1-c1cc(C2CCNCC2)c(C#N)c(N)n1` [Example 2-74], the pIC50 was above 6.00.

As to `CCOc1cccc(O)c1-c1cc(C2CCNCC2)c(C#N)c(N)n1` [Example 2-75], the negative-log IC50 (pIC50) is above 6.00.

Turning to `CCCCCCOc1cccc(O)c1-c1cc(C2CCNCC2)c(C#N)c(N)n1` [Example 2-76], the pIC50 is above 6.00.

Consider `CC(C)(C)C(=O)COc1cccc(O)c1-c1cc(C2CCCNC2)c(C#N)c(N)n1` (centres unmarked) [Example 2-77], for which the pIC50 is above 6.00.

As to `CC(C)(C)C(=O)COc1cccc(O)c1-c1cc(C2CCNCC2)c(C#N)c(N)n1` [Example 2-78], the pIC50 was above 6.00.

`N#Cc1c(C2CCCNC2)cc(-c2c(O)cccc2OCC2CCCCO2)nc1N` (centres unmarked) [Example 2-79]: the pIC50 is above 6.00.

On to `N#Cc1c(C2CCCNC2)cc(-c2c(O)cccc2OCC2CCCO2)nc1N` (centres unmarked) [Example 2-80], for which the negative logarithm of the IC50 (pIC50) is above 6.00.

Regarding `N#Cc1c(C2CCNCC2)cc(-c2c(O)cccc2OCC2CCCO2)nc1N` (centres unmarked) [Example 2-82], the pIC50 was above 6.00.

Regarding `N#Cc1c(C2CCCNC2)cc(-c2c(O)cccc2OCCN2CCCCC2)nc1N` (centres unmarked) [Example 2-83], the pIC50 is 5.00 to 6.00.

As for `N#Cc1c(C2CCCNC2)cc(-c2c(O)cccc2OCCN2CCOCC2)nc1N` (centres unmarked) [Example 2-84], the pIC50 is 5.00 to 6.00.

Take `CN(C)CCOc1cccc(O)c1-c1cc(C2CCCNC2)c(C#N)c(N)n1` (centres unmarked) [Example 2-85]: the pIC50 was 5.00 to 6.00.

For `N#Cc1c(C2CCCNC2)cc(-c2c(O)cccc2OCCN2CCCCCC2)nc1N` (centres unmarked) [Example 2-86], the negative logarithm of the IC50 (pIC50) is 5.00 to 6.00.

`N#Cc1c(C2CCCNC2)cc(-c2c(O)cccc2OCCN2CCCC2)nc1N` (centres unmarked) [Example 2-87]: the pIC50 was 5.00 to 6.00.

As for `CCOC(=O)N1Cc2c(C3CCCNC3)cc(-c3c(O)cccc3OCC3CC3)nc2NC1=O` (centres unmarked) [Example 24-2, ethyl 7-[2-(cyclopropylmethoxy)-6-hydroxyphenyl]-2-oxo-5-(3-piperidinyl)-1,4-dihydropyrido[2,3-d]pyrimidine-3(2H)-carboxylate hydrochloride], the pIC50 is above 6.00.

Regarding `O=C1Nc2nc(-c3c(O)cccc3OCC3CC3)cc(C3CCCNC3)c2CN1C(=O)NC1CCCCC1` (centres unmarked) [Example 24-3, N-cyclohexyl-7-[2-(cyclopropylmethoxy)-6-hydroxyphenyl]-2-oxo-5-(3-piperidinyl)-1,4-dihydropyrido[2,3-d]pyrimidine-3(2H)-carboxamide hydrochloride], the pIC50 was above 6.00.

On to `CS(=O)(=O)N1Cc2c(C3CCCNC3)cc(-c3c(O)cccc3OCC3CC3)nc2NC1=O` (centres unmarked) [Example 24-4, 7-[2-(cyclopropylmethoxy)-6-hydroxyphenyl]-3-(methylsulfonyl)-5-(3-piperidinyl)-3,4-dihydropyrido[2,3-d]pyrimidin-2(1H)-one hydrochloride], for which the negative logarithm of the IC50 (pIC50) is above 6.00.

Take `CCOC(=O)c1cc2c(C3CCCNC3)cc(-c3ccccc3O)nc2[nH]c1=O` (centres unmarked) [Example 25-1, ethyl 7-(2-hydroxyphenyl)-2-oxo-5-(3-piperidinyl)-1,2-dihydro-1,8-naphthyridine-3-carboxylate hydrochloride]: the negative-log IC50 (pIC50) was 5.00 to 6.00.

Consider `O=c1[nH]c2nc(-c3c(O)cccc3OCC3CC3)cc(C3CCCNC3)c2cc1F` (centres unmarked) [Example 25-2, 7-[2-(cyclopropylmethoxy)-6-hydroxyphenyl]-3-fluoro-5-(3-piperidinyl)-1,8-naphthyridin-2(1H)-one hydrochloride], for which the pIC50 is above 6.00.

Turning to `NC(=O)c1cc2c(C3CCNCC3)cc(-c3c(O)cccc3OCC3CC3)nc2[nH]c1=O` [Example 25-3, 7-[2-(cyclopropylmethoxy)-6-hydroxyphenyl]-2-oxo-5-(4-piperidinyl)-1,2-dihydro-1,8-naphthyridine-3-carboxamide hydrochloride], the negative-log IC50 (pIC50) is 5.00 to 6.00.

Turning to `O=c1ccc2c(C3CCCNC3)cc(-c3c(O)cccc3OCC3CC3)nc2[nH]1` (centres unmarked) [Example 25-4, 7-[2-(cyclopropylmethoxy)-6-hydroxyphenyl]-5-(3-piperidinyl)-1,8-naphthyridin-2(1H)-one hydrochloride], the pIC50 was above 6.00.

With `CCOC(=O)C1Cc2c(C3CCCNC3)cc(-c3ccccc3O)nc2NC1=O` (centres unmarked) [Example 26-1, ethyl 7-(2-hydroxyphenyl)-2-oxo-5-(3-piperidinyl)-1,2,3,4-tetrahydro-1,8-naphthyridine-3-carboxylate], the pIC50 was above 6.00.

As to `NC(=O)C1Cc2c(C3CCNCC3)cc(-c3c(O)cccc3OCC3CC3)nc2NC1=O` (centres unmarked) [Example 26-2, 7-[2-(cyclopropylmethoxy)-6-hydroxyphenyl]-2-oxo-5-(4-piperidinyl)-1,2,3,4-tetrahydro-1,8-naphthyridine-3-carboxamide hydrochloride], the negative-log IC50 (pIC50) is above 6.00.

As for `O=C1CCc2c(C3CCCNC3)cc(-c3ccccc3O)nc2N1` (centres unmarked) [Example 27-1, 7-(2-hydroxyphenyl)-5-(3-piperidinyl)-3,4-dihydro-1,8-naphthyridin-2(1H)-one hydrochloride], the pIC50 is above 6.00.
